Holding throughout (experiment): growth of human tumour cells (NCI), 48 h
Assay [1] concerns SK-MEL-28.
Assay [2] concerns HCC 2998.
The subject of assay [3] is OVCAR-8.
Assay [4] deals with SR.
In assay [5] the test system is KM12.
The subject of assay [6] is LOX IMVI.
Assay [7] has as its system MDA-N.
The subject of assay [8] is UACC-257.
For assay [9], the system named is OVCAR-3.
The test system of assay [10] is HL-60.
Assay [11] deals with A549.
Assay [12] relates to PC-3.
Assay [13] concerns TK-10.
Assay [14] concerns A498.
For assay [15], the system named is NCI/ADR-RES.
Assay [16] deals with K562.
Assay [17] deals with SW-620.
The subject of assay [18] is HCT-15.
The subject of assay [19] is COLO 205.
Assay [20] deals with HOP-92.

Structures can show the parent of a compound that is named as a salt.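 Five compound concentrations were applied to cells in 96-well plates for 48 hours; endpoints were derived by simple linear interpolation of the resulting dose-response curve. Here, GI50 denotes the concentration required for 50% inhibition of growth.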 The source made the active and inactive calls. No stated cut-off is given here; in the data, active = GI50 up to about 1.1 µM and inactive = higher. Where a SMILES comes first, the peptide text is derived from it. Some results are limits rather than exact numbers.

The text below walks through data of ChEMBL document CHEMBL1201862, “PubChem BioAssay data set” (2004).

On to `Sc1ccc2ccccc2c1CNCc1ccccc1`, for which the GI50 is 21.5 µM (inactive) in assay [1]; > 100 µM (inactive) in assay [2]; 20.5 µM (inactive) in assay [3]; 3.44 µM (inactive) in assay [4]; 13.9 µM (inactive) in assay [5]; 5.78 µM (inactive) in assay [6]. In addition, the GI50 in assay [7] is 13.2 µM (inactive); in assay [8], 26.6 µM (inactive); in assay [9], 13.6 µM (inactive); in assay [10] it was 5.77 µM (inactive); in [11] it was 25.3 µM (inactive); in assay [12], 18.8 µM (inactive). Besides, the GI50 was 30.8 µM (inactive) in assay [13]; 16.3 µM (inactive) in [14]; 25.4 µM (inactive) in [15]; 13.3 µM (inactive) in assay [16]; 9.12 µM (inactive) in [17]; 16.4 µM in [18]. For the same compound, in [19], the GI50 was 13.7 µM (inactive).
On to `O=C(CSc1nnc(SCC(=O)NN=C2CCCCC2)s1)NN=C1CCCCC1`, for which the GI50 in [1], in [2], in [3], in assay [4], in assay [5] and in assay [6] was > 100 µM (inactive) each time. The GI50 in assay [7], in assay [8], in assay [9], in [11], in [12] and in assay [13] was > 100 µM (inactive) throughout. For the same compound, the GI50 was > 100 µM (inactive) in assay [14]; > 100 µM (inactive) in assay [15]; > 100 µM (inactive) in assay [16]; > 100 µM (inactive) in [17]; > 100 µM in [18]; > 100 µM (inactive) in assay [20]. Also, the GI50 in assay [19] is > 100 µM (inactive).
As to `COc1ccc(NC(=O)C(=O)Cc2nc3ccc(C(=O)c4ccccc4)cc3nc2O)c([N+](=O)[O-])c1`, the GI50 in assay [1] is 25.8 µM (inactive); in assay [2] it was 29.8 µM (inactive); in assay [3], 18.8 µM (inactive); in [4], 18.3 µM (inactive); in assay [5], 6.93 µM (inactive); in assay [6], 25.2 µM (inactive). The GI50 was 23.4 µM (inactive) in assay [7]; 22.6 µM (inactive) in assay [8]; 22.5 µM (inactive) in [9]; 47.1 µM (inactive) in assay [11]; 18.5 µM (inactive) in assay [12]; 24.9 µM (inactive) in assay [13]. The GI50 in [14] was 16.6 µM (inactive); in assay [15], 11.5 µM (inactive); in [17] it was 19.1 µM (inactive); in [18], 34 µM; in assay [20], 10.8 µM (inactive); in [19] it was 16 µM (inactive).
As to `CCCCNC(=S)N/N=C/c1cccc(C)n1`, the GI50 in [1] is 48.5 µM (inactive); in assay [3], 33.5 µM (inactive); in assay [4], 19.5 µM (inactive); in [5], 31.3 µM (inactive); in assay [6], 34.9 µM (inactive); in [7], 42.8 µM (inactive). The GI50 in assay [8] is 37.8 µM (inactive); in [9] it was > 100 µM (inactive); in assay [10], 23.2 µM (inactive); in assay [11] it was 32.4 µM (inactive); in assay [12], 47 µM (inactive); in assay [13] it was 29.7 µM (inactive). The GI50 in [14] is 36.1 µM (inactive); in [15], 29 µM (inactive); in [16], 13.2 µM (inactive); in [17], 49.1 µM (inactive); in assay [18] it was 47.6 µM; in assay [20] it was 24.2 µM (inactive). Further, the GI50 in [19] was 33.7 µM (inactive).
Take `Cn1c2ccccc2c2c3c(=O)[nH][nH]c(=O)c3c3c4ccccc4n(C)c3c21`: the GI50 was > 100 µM (inactive) in assay [1]; > 100 µM (inactive) in assay [2]; > 100 µM (inactive) in assay [3]; < 0.01 µM (active) in [4]; 30.1 µM (inactive) in [5]; > 100 µM (inactive) in assay [6]. The GI50 in assay [7], in assay [8], in assay [9], in [11], in assay [12] and in assay [13] was > 100 µM (inactive) in each case. Moreover, the GI50 in assay [14] is > 100 µM (inactive); in assay [15], > 58.2 µM (inactive); in [16], 58.5 µM (inactive); in assay [17], > 100 µM (inactive); in assay [18], 99.1 µM; in [20], > 100 µM (inactive). The GI50 in assay [19] is > 89.1 µM (inactive).
In the case of `C=C(C)C1(Sc2ccc(OC)cc2)CC1`, the GI50 was 79.1 µM (inactive) in assay [1]; 14.5 µM (inactive) in assay [2]; 33 µM (inactive) in [3]; 14.6 µM (inactive) in assay [4]; 25 µM (inactive) in [5]; 17.3 µM (inactive) in [6]. For the same compound, the GI50 in [7] was 15.6 µM (inactive); in assay [8], 21.2 µM (inactive); in assay [9] it was 14.5 µM (inactive); in assay [10] it was 17 µM (inactive); in assay [11], 30.8 µM (inactive); in [12], 29.3 µM (inactive). The GI50 in assay [13] is 48.1 µM (inactive); in assay [14], 29.3 µM (inactive); in assay [15], 37.4 µM (inactive); in assay [16], 14.9 µM (inactive); in assay [17], 17.4 µM (inactive); in assay [18], 24.4 µM. Further, in [19], the GI50 was 17.1 µM (inactive).
As to `O=C([C@H](O)[C@@H](O)c1cccc(Cl)c1)C12CC3CC(CC(C3)C1)C2`, the GI50 in assay [1] was 3.21 µM (inactive); in assay [2] it was 2.11 µM (inactive); in assay [3], 1.88 µM (inactive); in assay [4] it was 2.07 µM (inactive); in assay [5], 2.26 µM (inactive); in assay [6], 1.22 µM (inactive). Also, the GI50 in assay [7] was 1.93 µM (inactive); in assay [8], 2.21 µM (inactive); in assay [9], 1.94 µM (inactive); in [10], 0.483 µM (active); in assay [11], 2.19 µM (inactive); in assay [12], 1.87 µM (inactive). For the same compound, the GI50 is 1.98 µM (inactive) in [13]; 2.31 µM (inactive) in assay [14]; 2.27 µM (inactive) in assay [15]; 2.98 µM (inactive) in [16]; 2.06 µM (inactive) in assay [17]; 2.24 µM in assay [18]. Besides, the GI50 in [19] is 2.13 µM (inactive).
As to `O=C1c2ccccc2-c2c1c1ccccc1c(=O)n2Cc1ccccc1`, the GI50 in [1], in assay [3], in [4], in assay [5], in assay [6] and in assay [7] was > 100 µM (inactive) throughout. In addition, the GI50 in assay [8] is 79.4 µM (inactive); in assay [9], > 100 µM (inactive); in assay [10], > 100 µM (inactive); in [11] it was > 100 µM (inactive); in assay [12], > 100 µM (inactive); in assay [13], 40.7 µM (inactive). Also, the GI50 in assay [14] was 49.1 µM (inactive); in assay [15], > 100 µM (inactive); in assay [16], > 10 µM (inactive); in [17], > 100 µM (inactive); in assay [18], > 100 µM; in assay [20], 63.1 µM (inactive). Further, the GI50 in assay [19] was > 100 µM (inactive).
On to `CC(=O)NC(CS)C(=O)NC(CO)C(=O)NC(CO)C(=O)NC(Cc1c[nH]c2ccccc12)C(=O)N1CCCC1C(=O)NC(CO)C(=O)NC(Cc1c[nH]c2ccccc12)C(=O)NC(Cc1c[nH]cn1)C(=O)NC(CO)C(=O)NC(Cc1c[nH]c2ccccc12)C(=O)NCC(=O)NCC(=O)NC(CC(=O)O)C(=O)NC(CCC(N)=O)C(=O)NC(CCCCN)C(=O)NC(Cc1ccccc1)C(=O)NC(CCCNC(=N)N)C(=O)NC(CCCCN)C(N)=O` (centres undefined) (Ac-CSSWPSWHSWGGDQKFRK-NH2; configuration not given here), for which the GI50 in assay [1], in assay [3], in assay [4], in assay [5], in assay [6] and in assay [7] was > 25 µM (inactive) throughout. Also, the GI50 in assay [8], in assay [9], in assay [10], in assay [11], in assay [12] and in assay [13] was > 25 µM (inactive) in each case. The GI50 is > 25 µM (inactive) in assay [14]; > 25 µM (inactive) in assay [15]; > 25 µM (inactive) in assay [16]; > 25 µM (inactive) in assay [17]; > 25 µM in assay [18]; > 25 µM (inactive) in [20]. Also, in assay [19], the GI50 was > 25 µM (inactive).
Turning to `CN1[C@@H]2CC[C@H]1C[C@@H](OC(c1ccccc1)c1ccccc1)C2` [BENZTROPINE MESYLATE], the GI50 is 14.7 µM (inactive) in assay [1]; 16.4 µM (inactive) in [3]; 19.5 µM (inactive) in assay [4]; 17.2 µM (inactive) in assay [5]; 16 µM (inactive) in [6]; 15.1 µM (inactive) in assay [7]. Moreover, the GI50 in assay [8] was 13.7 µM (inactive); in [9] it was 15.9 µM (inactive); in assay [10], 18.2 µM (inactive); in [11] it was 16.9 µM (inactive); in [12], 16.6 µM (inactive); in assay [13] it was 17.3 µM (inactive). Further, the GI50 is 14 µM (inactive) in assay [14]; 16.2 µM (inactive) in assay [15]; 13.1 µM (inactive) in assay [16]; 14.5 µM (inactive) in assay [17]; 22.5 µM in [18]; 12.4 µM (inactive) in assay [20]. The GI50 in assay [19] is 11.3 µM (inactive).
